Here are results for four molecules from patent US9023789B2, “Amylin analogs and pharmaceutical compositions thereof” (Novo Nordisk A/S, priority 2012, dated 2015).

This data set is described as follows: ASSAY (III) ThT fibrillation assay for physical stability. It is filed as physicochemical. The text has this: Assay (III)—ThT Fibrillation Assays for the Assessment of Physical Stability of Protein Formulations Low physical stability of a polypeptide may lead to amyloid fibril formation, which is observed as well-ordered, thread-like macromolecular structures in the sample eventually resulting in gel formation. This has traditionally been measured by visual inspection of the sample. However, that kind of measurement is very subjective and depending on the observer. Therefore, the application of a small molecule indicator probe is much more advantageous. Thioflavin T (ThT) is such a probe and has a distinct fluorescence signature when binding to fibrils [Naiki et al. (1989) Anal. […] LeVine (1999) Methods. Enzymol. […], 274-284]. The time course for fibril formation can be described by a sigmoidal curve with the following expression [Nielsen et al. (2001) Biochemistry 40, 6036-6046]; […] Here, F is the ThT fluorescence at the time t. The constant t0 is the time needed to reach 50% of maximum fluorescence. […] Few of those intermediates nucleate to form a template onto which further intermediates may assembly and the fibrillation proceeds. The lag-time corresponds to the interval in which the critical mass of nucleus is built up and the apparent rate constant is the rate with which the fibril itself is formed. Sample Preparation Samples were prepared freshly before each assay. Each sample composition is described in each example. The pH of the sample was adjusted to the desired value using appropriate amounts of concentrated NaOH and HClO4 or HCl. Thioflavin T was added to the samples from a stock solution in H2O to a final concentration of 1 μM. Sample aliquots of 200 μl were placed in a 96 well microtiter plate (Packard OptiPlate™96, white polystyrene). Usually, four or eight replica of each sample (corresponding to one test condition) were placed in one column of wells. The plate was sealed with Scotch Pad (Qiagen). Incubation and Fluorescence Measurement Incubation at given temperature, shaking and measurement of the ThT fluorescence emission were done in a Fluoroskan Ascent FL fluorescence platereader or Varioskan platereader (Thermo Labsystems). The temperature was adjusted to 37° C. The orbital shaking was adjusted to 960 rpm with an amplitude of 1 mm in all the presented data. Fluorescence measurement was done using excitation through a 444 nm filter and measurement of emission through a 485 nm filter. Each run was initiated by incubating the plate at the assay temperature for 10 min. The plate was measured every 20 minutes for a desired period of time. Between each measurement, the plate was shaken and heated as described. Data Handling The measurement points were saved in Microsoft Excel format for further processing and curve drawing and fitting was performed using GraphPad Prism. The background emission from ThT in the absence of fibrils was negligible. The data points are typically a mean of four or eight samples and shown with standard deviation error bars. Only data obtained in the same experiment (i.e. samples on the same plate) are presented in the same graph ensuring a relative measure of fibrillation between experiments. The data set may be fitted to Eq. […] However, since full sigmodial curves in this case are not always achieved during the measurement time, the degree of fibrillation is expressed as ThT fluorescence tabulated as the mean of the samples and shown with the standard deviation at various time points. Measurement of Initial and Final Concentrations The polypeptide concentration in each of the tested formulations were measured both before application in the ThT fibrillation assay (“Initial”) and after completion of the ThT fibrillation (“After ThT assay”). Concentrations were determined by reverse HPLC methods using a pramlintide standard as a reference. Before measurement after completion 150 μl was collected from each of the replica and transferred to an Eppendorf tube. These were centrifuged at 30000 G for 40 mins. […]

Molecules are shown by their SMILES. Numbered stars: 1 amine (or outer) side, 2 acyl side, 3 side chain; on linkers, the order of the positions; unused ones are H or OH. Bridge positions count the residues as written; N and C are the ends. Peptide text beside a SMILES is read from it. * marks the point of attachment. C20 diacid = O=C(O)CCCCCCCCCCCCCCCCCCC(=O)*; γGlu = O=C(O)[C@H](CCC(=O)[*:2])N[*:1]

Turning to `CC[C@H](C)[C@H](NC(=O)[C@H](C)NC(=O)CNC(=O)[C@H](Cc1ccccc1)NC(=O)[C@H](CC(N)=O)NC(=O)[C@@H]1CCCN1C(=O)[C@H](CO)NC(=O)[C@H](CO)NC(=O)[C@H](Cc1c[nH]cn1)NC(=O)[C@H](CCCNC(=N)N)NC(=O)[C@H](CC(C)C)NC(=O)[C@H](Cc1ccccc1)NC(=O)[C@H](CCC(=O)O)NC(=O)[C@H](C)NC(=O)[C@H](CC(C)C)NC(=O)[C@H](CCCNC(=N)N)NC(=O)[C@H](CCC(N)=O)NC(=O)[C@@H](NC(=O)[C@H](C)NC(=O)[C@@H]1CSSC[C@H](NC(=O)[C@H](CCCCN)NC(=O)CC[C@H](NC(=O)CCCCCCCCCCCCCCCCCCC(=O)O)C(=O)O)C(=O)N[C@@H](CC(N)=O)C(=O)N[C@@H]([C@@H](C)O)C(=O)N[C@@H](C)C(=O)N[C@@H]([C@@H](C)O)C(=O)N1)[C@@H](C)O)C(=O)N1CCC[C@H]1C(=O)N[C@@H](CO)C(=O)N[C@@H](CO)C(=O)N[C@H](C(=O)N[C@@H](CC(N)=O)C(=O)N[C@H](C(=O)NCC(=O)N[C@@H](CO)C(=O)N[C@@H](CC(=O)O)C(=O)N[C@H](C(=O)N1CCC[C@H]1C(N)=O)[C@@H](C)O)C(C)C)[C@@H](C)O` [Example 11] ({C20 diacid-γGlu}-KCNTATCATQRLAEFLRHSSPNFGAIPSSTNVGSDTP-NH2; disulfide 2-7 (inferred)), the “ThT pH 4.0 lag time (h)” value worked out at 45 h.

As to `CC[C@H](C)[C@H](NC(=O)[C@H](C)NC(=O)CNC(=O)[C@H](Cc1ccccc1)NC(=O)[C@H](CC(N)=O)NC(=O)[C@@H]1CCCN1C(=O)[C@H](CO)NC(=O)[C@H](CO)NC(=O)[C@H](Cc1c[nH]cn1)NC(=O)[C@H](CCCNC(=N)N)NC(=O)[C@H](CC(C)C)NC(=O)[C@H](Cc1ccccc1)NC(=O)[C@H](CCC(=O)O)NC(=O)[C@H](C)NC(=O)[C@H](CC(C)C)NC(=O)[C@H](CCCNC(=N)N)NC(=O)[C@H](CCC(N)=O)NC(=O)[C@@H](NC(=O)[C@H](C)NC(=O)[C@@H]1CSSC[C@H](NC(=O)[C@H](CCCCN)NC(=O)CC[C@H](NC(=O)CC[C@H](NC(=O)CCCCCCCCCCCCCCCCCCC(=O)O)C(=O)O)C(=O)O)C(=O)N[C@@H](CC(N)=O)C(=O)N[C@@H]([C@@H](C)O)C(=O)N[C@@H](C)C(=O)N[C@@H]([C@@H](C)O)C(=O)N1)[C@@H](C)O)C(=O)N1CCC[C@H]1C(=O)N[C@@H](CO)C(=O)N[C@@H](CO)C(=O)N[C@H](C(=O)N[C@@H](CC(N)=O)C(=O)N[C@H](C(=O)NCC(=O)N[C@@H](CO)C(=O)N[C@@H](CC(N)=O)C(=O)N[C@H](C(=O)N[C@@H](Cc1ccc(O)cc1)C(N)=O)[C@@H](C)O)C(C)C)[C@@H](C)O` [Example 15] ({C20 diacid-γGlu-γGlu}-KCNTATCATQRLAEFLRHSSPNFGAIPSSTNVGSNTY-NH2; disulfide 2-7 (inferred)), the “ThT pH 4.0 lag time (h)” value came out at 45 h.

In the case of `CC[C@H](C)[C@H](NC(=O)[C@H](C)NC(=O)CNC(=O)[C@H](Cc1ccccc1)NC(=O)[C@H](CC(N)=O)NC(=O)[C@@H]1CCCN1C(=O)[C@H](CO)NC(=O)[C@H](CO)NC(=O)[C@H](Cc1c[nH]cn1)NC(=O)[C@H](CCCNC(=N)N)NC(=O)[C@H](CC(C)C)NC(=O)[C@H](Cc1ccccc1)NC(=O)[C@H](CCC(=O)O)NC(=O)[C@H](C)NC(=O)[C@H](CC(C)C)NC(=O)[C@H](CCCNC(=N)N)NC(=O)[C@H](CCC(N)=O)NC(=O)[C@@H](NC(=O)[C@H](C)NC(=O)[C@@H]1CSSC[C@H](NC(=O)[C@H](CCCCN)NC(=O)CC[C@H](NC(=O)CCCCCCCCCCCCCCCCCCC(=O)O)C(=O)O)C(=O)N[C@@H](CC(N)=O)C(=O)N[C@@H]([C@@H](C)O)C(=O)N[C@@H](C)C(=O)N[C@@H]([C@@H](C)O)C(=O)N1)[C@@H](C)O)C(=O)N1CCC[C@H]1C(=O)N[C@@H](CO)C(=O)N[C@@H](CO)C(=O)N[C@H](C(=O)N[C@@H](CC(N)=O)C(=O)N[C@H](C(=O)NCC(=O)N[C@@H](CO)C(=O)N[C@@H](CC(N)=O)C(=O)N[C@H](C(=O)N1CCC[C@H]1C(N)=O)[C@@H](C)O)C(C)C)[C@@H](C)O` [Example 8] ({C20 diacid-γGlu}-KCNTATCATQRLAEFLRHSSPNFGAIPSSTNVGSNTP-NH2; disulfide 2-7), the “ThT pH 4.0 lag time (h)” value came out at 45 h.

Take `CC[C@H](C)[C@H](NC(=O)[C@H](C)NC(=O)CNC(=O)[C@H](Cc1ccccc1)NC(=O)[C@H](CC(N)=O)NC(=O)[C@@H]1CCCN1C(=O)[C@H](CO)NC(=O)[C@H](CO)NC(=O)[C@H](Cc1c[nH]cn1)NC(=O)[C@H](CCCNC(=N)N)NC(=O)[C@H](CC(C)C)NC(=O)[C@H](Cc1ccccc1)NC(=O)[C@H](CC(=O)O)NC(=O)[C@H](C)NC(=O)[C@H](CC(C)C)NC(=O)[C@H](CCCNC(=N)N)NC(=O)[C@H](CCC(N)=O)NC(=O)[C@@H](NC(=O)[C@H](C)NC(=O)[C@@H]1CSSC[C@H](NC(=O)[C@H](CCCCN)NC(=O)CC[C@H](NC(=O)CCCCCCCCCCCCCCCCCCC(=O)O)C(=O)O)C(=O)N[C@@H](CC(N)=O)C(=O)N[C@@H]([C@@H](C)O)C(=O)N[C@@H](C)C(=O)N[C@@H]([C@@H](C)O)C(=O)N1)[C@@H](C)O)C(=O)N1CCC[C@H]1C(=O)N[C@@H](CO)C(=O)N[C@@H](CO)C(=O)N[C@H](C(=O)N[C@@H](CC(N)=O)C(=O)N[C@H](C(=O)NCC(=O)N[C@@H](CO)C(=O)N[C@@H](CC(N)=O)C(=O)N[C@H](C(=O)N1CCC[C@H]1C(N)=O)[C@@H](C)O)C(C)C)[C@@H](C)O` [Example 10] ({C20 diacid-γGlu}-KCNTATCATQRLADFLRHSSPNFGAIPSSTNVGSNTP-NH2; disulfide 2-7 (inferred)): the “ThT pH 4.0 lag time (h)” value stood at 45 h.
